From patent publication US10954258B2, “STAT3 dimerization inhibitors” (H. LEE MOFFITT CANCER CENTER AND RESEARCH INSTITUTE, INC., priority 2012, dated 2021)
[ ]: non-standard residue; d: D form. pY = N[C@@H](Cc1ccc(OP(=O)(O)O)cc1)C(=O)O

Columns and labels:
[1] = tested on: STAT3-DNA binding activity in MDA-MB-468 and A-549 cells; test: STAT3-DNA binding filter plate assay on nuclear extracts; format: cell-based, human; settings: 1, 2 or 4 hours
Protocol: Nuclear extract preparation was carried out as described in Yu, et al., Science 1995; 269(5220):81-83. The STAT3-DNA binding filter plate assay was performed following the manual of the filter plate assay kit (Signosis, Sunnyvale, Calif.), as described for NFkB (Ying, et al., Blood 2011; 117(4):1301-1307). The TF Binding buffer was mixed with the STAT3 probe (biotin labeled STAT3 DNA binding sequence) and nuclear extract and incubated at 16° C. for 30 minutes to form the STAT3-DNA complex. The STAT3-DNA complex was then separated from free probe by using a filter plate. After several steps of binding and washing, bound STAT3 probe is retained on the filter in the corresponding well of Filer Plate and the free DNA probe is removed. The bound pre-labeled STAT3 probe was then eluted from the filter plate by centrifuge with elution buffer. Eluted probes were then hybridized into 96-well Hybridization Plate for quantitative analysis. The captured STAT3 probe was further detected by conjugation with streptavidin-HRP. The chemiluminescence of each well was detected by 2104 EnVisionR Multilabel Reader of PerkinElmer (Pekin Elmer, Waltham, Mass., USA) within 5 minutes after mixture with substrates. […]

[2] = target: binding of FLAG-STAT3 to HA-STAT3 (Mus musculus, UniProt P42227); test: co-immunoprecipitation of FLAG-STAT3 with HA-STAT3 in HEK293 cells; format: cell-based, human; settings: HEK293 cells co-expressing FLAG- and HA-STAT3; treated 4 h
Protocol: HEK-293/FLAG-STAT3/HA-STAT3 cells were treated for 4 h with vehicle, S3I-1757, S3I-1756, Ac-G{pTYR}LPQTV-[…]-NH2 (SEQ ID NO:3) or Ac-GYLPQTV-[…]-NH2 (SEQ ID NO:4) and then lysed in 20 mM Tris-HCl (pH 7.4), 5 mM EDTA, 10 mM Na4P2O7, 100 mM NaF, 2 mM Na3VO4, 1% NP-40.1 mM PMSF and 10 mg/ml aprotinin. For EGF stimulation group, HEK-293/FLAG-STAT3/HASTAT3 cells were treated by 100 ng/ml EGF for 30 minutes before making cell lysate. Protein A or G agarose (EMD Millipore, Billerica, Mass., USA) was washed twice with PBS and restore to 50% slurry with PBS. 500 μg of lysate were pre-cleared by mixture of protein A and protein G-agarose for 1 h at 4° C. and then remove protein A and G-agarose by centrifuge at 1300 rpm for 3 minutes. And then 500 μg of lysate was immunoprecipitated with 50 ng of HA antibody overnight at 4° C. on shaker and then capture the immunocomplex by adding 100 μl Protein A and G agarose/sepharose bead slurry for 1 hour at 4° C. Samples were washed five times with lysis buffer and then boiled in 5×SDS-PAGE sample buffer and run on SDS-PAGE gel. Protein was transferred to nitrocellulose membrane and then blotted as described above for HA, FLAG, pSTAT3, EGFR, and STAT3.
However, the FP assay only measured the ability of S3I-1757 to displace the 7 amino acid fluorescein-labelled GpYLPQTV phosphotyrosine peptide from the SH2 domain of STAT3 protein in vitro. Therefore, it was determined if the intracellular reciprocal binding of 2 full-length STAT3 proteins is inhibited. To this end, an assay was developed to measure directly STAT3-STAT3 dimerization in intact cells by cloning HA-tagged STAT3 and FLAG-tagged STAT3, generating HEK293 cells that stably co-express HA-STAT3 and FLAG-STAT3 and using these cells for coimmunoprecipitation and co-localization. […] This assay was validated by treating the FLAG-STAT3/HA-STAT3 HEK293 cells with tyrosine phosphorylated or nonphosphorylated GYLPQTV peptide fused to a membrane-translocating sequence (MTS) to allow cell uptake. […]

[3] = tested on: P-STAT3 in the nucleus of MDA-MB-468 cells; test: P-STAT3 nuclear accumulation by immunofluorescence; format: cell-based, human; settings: 18 hours, various concentrations
Protocol: MDA-MB-468 cells were plated at 4000 cells/well in 8-chamber slide. […] Cells were fixed, washed, and permeabilized as describe above. Specimens were then blocked in 1% bovine serum albumin (BSA) for 30 min and incubated with anti-pSTAT3 (Cell Signaling), antibody at 1:50 dilution at 4° C. overnight. Subsequently, cells were rinsed 4-5 times in PBS, incubated with Alexa Fluor secondary antibody for 1 hour at room temperature in the dark. Specimens were then washed 5 times with PBS, covered with cover slides with [sequence] mounting medium containing DAPI (Vector Lab, Inc., Burlingame, Calif.), and examined immediately under Zeiss Upright Fluorescence Microscope (Zeiss, Thornwood, N.Y., USA).

[4] = tested on: human breast and liver cancer xenografts; settings: human breast and liver cancer xenografts in mouse models; cited from earlier work

Sequence of binding of FLAG-STAT3 to HA-STAT3 (P42227 whole entry): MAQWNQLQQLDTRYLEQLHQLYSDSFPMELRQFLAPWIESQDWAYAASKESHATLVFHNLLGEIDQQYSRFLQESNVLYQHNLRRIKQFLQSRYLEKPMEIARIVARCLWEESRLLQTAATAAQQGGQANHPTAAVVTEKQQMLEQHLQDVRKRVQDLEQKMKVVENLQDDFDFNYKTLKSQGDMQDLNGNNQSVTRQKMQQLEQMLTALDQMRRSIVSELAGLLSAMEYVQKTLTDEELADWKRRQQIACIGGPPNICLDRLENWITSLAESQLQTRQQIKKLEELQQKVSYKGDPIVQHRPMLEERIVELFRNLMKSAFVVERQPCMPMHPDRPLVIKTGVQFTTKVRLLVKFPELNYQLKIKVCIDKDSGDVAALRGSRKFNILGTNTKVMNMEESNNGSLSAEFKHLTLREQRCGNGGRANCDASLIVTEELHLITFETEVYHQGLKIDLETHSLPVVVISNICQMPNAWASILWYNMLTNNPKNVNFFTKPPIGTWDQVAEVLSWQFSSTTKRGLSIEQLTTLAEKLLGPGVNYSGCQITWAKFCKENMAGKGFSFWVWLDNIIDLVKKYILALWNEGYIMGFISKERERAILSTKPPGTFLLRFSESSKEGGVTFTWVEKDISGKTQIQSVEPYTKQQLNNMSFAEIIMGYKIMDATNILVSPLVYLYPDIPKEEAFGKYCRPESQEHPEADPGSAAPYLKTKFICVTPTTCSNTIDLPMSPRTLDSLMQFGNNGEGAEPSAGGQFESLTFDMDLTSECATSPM

With `O=C(c1ccc(Oc2ccccc2)cc1)N(Cc1ccc(C2CCCCC2)cc1)c1ccc(CP(=O)(O)O)cc1` [Compound 17c, 4-(N-(4-Cyclohexylbenzyl)-4-phenoxybenzamido)benzylphosphonic acid] the melting point was 188 °C (dec.).
In the case of `COc1ccc(CN(C(=O)c2ccc(Oc3ccccc3)cc2)c2ccc(O)c(C(=O)O)c2)cc1` [Compound 20b, 2-Hydroxy-5-(N-(4-methoxybenzyl)-4-phenoxybenzamido)benzoic acid], the “activated STAT3 in nuclear extracts capable of binding the STAT3 DNA binding probe” value [1] is reported as “did not decrease the amount of STAT3 capable of binding DNA”, the “binding of FLAG-STAT3 to HA-STAT3 (co-immunoprecipitation)” value [2] is reported as “did not inhibit this binding with concentrations as high as 200 μM” and the P-STAT3 nuclear accumulation [3] is reported as “little effect with concentrations as high as 200 μM”.
With “Ac-G{pTYR}LPQTV-AAVLLPVLLAAP-NH2 (Ac-G[pY]LPQTVAAVLLPVLLAAP-NH2; SMILES CC(=O)NCC(=O)N[C@@H](Cc1ccc(OP(=O)(O)O)cc1)C(=O)N[C@@H](CC(C)C)C(=O)N1CCC[C@H]1C(=O)N[C@@H](CCC(N)=O)C(=O)N[C@H](C(=O)N[C@H](C(=O)N[C@@H](C)C(=O)N[C@@H](C)C(=O)N[C@H](C(=O)N[C@@H](CC(C)C)C(=O)N[C@@H](CC(C)C)C(=O)N1CCC[C@H]1C(=O)N[C@H](C(=O)N[C@@H](CC(C)C)C(=O)N[C@@H](CC(C)C)C(=O)N[C@@H](C)C(=O)N[C@@H](C)C(=O)N1CCC[C@H]1C(N)=O)C(C)C)C(C)C)C(C)C)[C@@H](C)O) [P-Pep, reference compound]” the “binding of FLAG-STAT3 to HA-STAT3 (co-immunoprecipitation)” value [2] was “inhibited FLAG-STAT3 from co-immunoprecipitating with HA-STAT3”.
In the case of `Cc1ccc(S(=O)(=O)OCC(=O)Nc2ccc(C(=O)O)c(O)c2)cc1` [Compound S3I-201], the “antitumor effects in xenografts” value [4] is listed as “exert antitumor effects against human breast and liver cancer xenografts in mouse models”.
In the case of `O=C(Nc1ccc(CP(=O)(O)O)cc1)c1ccc(Oc2ccccc2)cc1` [Compound 18c, 4-(4-Phenoxybenzamido)benzylphosphonic acid], the melting point is reported as greater than 250 °C.
In the case of `O=C(c1ccc(Oc2ccccc2)cc1)N(Cc1ccc(C2CCCCC2)cc1)c1ccc(P(=O)(O)O)cc1` [Compound 17a, 4-(N-(4-Cyclohexylbenzyl)-4-phenoxybenzamido)phenylphosphonic acid], the melting point is reported as 182.7 °C (dec.).
With `O=C(c1ccc(Oc2ccccc2)cc1)N(Cc1ccc(C2CCCCC2)cc1)c1cccc(CP(=O)(O)O)c1` [Compound 17d, 3-(N-(4-Cyclohexylbenzyl)-4-phenoxybenzamido)benzylphosphonic acid] the melting point was 97 °C (dec.).
